The source made the active and inactive calls. How the calls were made is not given here.
Target: ATP-sensitive inward rectifier potassium channel 1 (Homo sapiens) (UniProt P48048)
Assay: ROMK channel inhibitor potency, dose response, cell-based, thallium flux, HEK293 (AID 2753)
Details: fluorescence

ATP-sensitive inward rectifier potassium channel 1 (Homo sapiens), sequence (P48048 whole entry, looked up): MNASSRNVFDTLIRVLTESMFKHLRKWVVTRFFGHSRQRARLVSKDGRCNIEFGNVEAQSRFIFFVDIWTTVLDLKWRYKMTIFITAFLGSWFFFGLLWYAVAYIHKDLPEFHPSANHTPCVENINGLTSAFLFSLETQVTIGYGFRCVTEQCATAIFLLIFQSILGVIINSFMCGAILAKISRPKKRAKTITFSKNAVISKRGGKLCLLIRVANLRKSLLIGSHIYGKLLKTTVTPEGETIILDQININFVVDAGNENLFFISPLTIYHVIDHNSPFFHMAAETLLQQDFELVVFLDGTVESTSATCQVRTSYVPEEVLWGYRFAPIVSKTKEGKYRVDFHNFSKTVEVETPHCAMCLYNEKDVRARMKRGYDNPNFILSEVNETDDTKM

Structure (SMILES): N#CC1=C(N)N(c2ccccc2)C(c2cccc([N+](=O)[O-])c2)C1(C#N)C#N (stereo not drawn)
- IC50: 11.5 µM

Structure (SMILES): CCCC(C(=O)NCc1ccco1)N(C(=O)CNS(=O)(=O)c1ccccc1)c1ccccc1OC (stereo not drawn)
- IC50: inactive

Structure (SMILES): CCOCCCNC(=O)/C(C#N)=C/c1ccc(C(=O)OC)cc1
- IC50: inactive

Structure (SMILES): N#C/C(=C\c1cccc(Oc2ccccc2)c1)C(=O)N1CCOCC1
- IC50: 6.57 µM

Structure (SMILES): N#C/C(=C\c1ccc(Cl)c([N+](=O)[O-])c1)c1ccccn1
- IC50: 3.6 µM

Structure (SMILES): Cc1cccc(C2c3[nH]c4ccccc4c3CCN2C(=O)c2nn(C)c(=O)c3ccccc23)n1 (stereo not drawn)
- IC50: inactive

Structure (SMILES): O=C(NCc1ccccc1)N1CCC(n2cnc3cc(F)ccc32)CC1
- IC50: inactive

Structure (SMILES): COc1ccccc1/C=C(\C#N)C(=O)Nc1ccc(S(N)(=O)=O)cc1
- IC50: inactive

Structure (SMILES): O=C(Cn1nc(Cl)nc1Cl)c1cc2ccccc2oc1=O
- IC50: 18 µM

Structure (SMILES): CNC(=O)c1nnsc1S(=O)c1ccc(Cl)cc1 (stereo not drawn)
- IC50: 0.647 µM

Structure (SMILES): CCCS(=O)(=O)c1nnnn1-c1cccc(OC)c1
- IC50: inactive

Structure (SMILES): Cc1ccc(Oc2c(C(N)=O)cc([N+](=O)[O-])cc2[N+](=O)[O-])cc1
- IC50: 51 µM

Structure (SMILES): O=C(O)c1ccc(Cn2cnc3scc(-c4ccccc4)c3c2=O)cc1
- IC50: 9.85 µM

Structure (SMILES): CC1CCCCC1NC(=O)/C(C#N)=C/c1ccccc1F (stereo not drawn)
- IC50: 4.75 µM

Structure (SMILES): CCOC(=O)C(=Cc1ccc(-n2cncn2)cc1)C(=O)OCC
- IC50: 95.8 µM

Structure (SMILES): COc1ccc(NC(=O)/C(Cl)=C(/Cl)S(=O)Cc2ccccc2)cn1 (stereo not drawn)
- IC50: 1.21 µM

Structure (SMILES): CCCNC(=O)c1nnsc1S(=O)c1ccc(Cl)cc1 (stereo not drawn)
- IC50: 2.8 µM

Structure (SMILES): CC1CCCCC1NC(=O)CN1C(=O)CSc2cc(S(=O)(=O)N3CCCCCC3)ccc21 (stereo not drawn)
- IC50: 55.3 µM

Structure (SMILES): CCCCC1(CCCC)C(=O)NC(=Nc2cccc(C)c2)NC1=O
- IC50: 3.01 µM

Structure (SMILES): O=C1c2cccc3c([N+](=O)[O-])ccc(c23)C(=O)N1CC1CCCO1 (stereo not drawn)
- IC50: inactive

Structure (SMILES): CC1=NOC(=O)/C1=C\c1ccc(-c2ccccc2Br)o1
- IC50: inactive

Structure (SMILES): O=C(NCc1cccnc1)/C(=C/c1ccc(-c2cccc(Cl)c2)o1)S(=O)(=O)c1ccccc1
- IC50: inactive

Structure (SMILES): CC(C)c1[nH]nc2c1C(c1cccs1)C(C#N)=C(N)O2 (stereo not drawn)
- IC50: inactive

Structure (SMILES): O=[N+]([O-])c1ccc(S(=O)(=O)N2CCN(Cc3c[nH]c4ccccc34)CC2)cc1
- IC50: inactive

Structure (SMILES): Cc1cc(NC(=O)/C=C/C(=O)N(CC(=O)NC2CCCC2)c2cccc3ccccc23)no1
- IC50: 9.96 µM

Structure (SMILES): C=CCNC(=O)/C(C#N)=C\c1cc(Cl)c(OCC)c(OC)c1
- IC50: 86.8 µM

Structure (SMILES): CCCC(=O)OCCNc1cc(Sc2nccn2C)c2nonc2c1[N+](=O)[O-]
- IC50: 157 µM

Structure (SMILES): Cc1nn(-c2ccccc2)c(Cl)c1/C=C(\C#N)C(=O)NC(C)C
- IC50: 45.5 µM

Structure (SMILES): CC(NC(=O)/C(C#N)=C/c1cccs1)c1ccccc1 (stereo not drawn)
- IC50: 69.5 µM

Structure (SMILES): Cn1nc(C(F)(F)F)c(C#N)c1N1CCN(c2ccccc2)CC1
- IC50: 15.2 µM

Structure (SMILES): O=[N+]([O-])c1ccc(N2CCCNCC2)c2ncccc12
- IC50: 10.7 µM

Structure (SMILES): Cc1nn(CCCC(=O)N2CCN(c3ccc(F)cc3)CC2)c(C)c1[N+](=O)[O-]
- IC50: inactive

Structure (SMILES): O=C(/C(=C/c1ccc(Cl)cc1)c1nc2ccccc2[nH]1)c1cccs1
- IC50: 4.56 µM

Structure (SMILES): N#CC1=C(N)N(c2ccccc2)C(c2ccccc2)C1(C#N)C#N (stereo not drawn)
- IC50: 32.2 µM

Structure (SMILES): Cc1ccccc1N1C(=S)NC2c3ccccc3OC1(C)C2C(=O)N(C)C (stereo not drawn)
- IC50: 0.0115 µM

Structure (SMILES): COc1cc(NC(C)=O)c2ncccc2c1[N+](=O)[O-]
- IC50: 21.1 µM

Structure (SMILES): N#C/C(=C/c1ccncc1)c1nc2ccccc2s1
- IC50: 2.68 µM

Structure (SMILES): COC(=O)c1cc([N+](=O)[O-])c(-n2cncn2)c([N+](=O)[O-])c1
- IC50: 5.07 µM

Structure (SMILES): CCN1C(=O)c2cccc3c(S(=O)(=O)Nc4ccccc4OC)ccc1c23
- IC50: inactive

Structure (SMILES): O=C(CN1CCCC1)Nc1c2c(nc3ccccc13)N(Cc1ccccc1)CC2
- IC50: inactive

Structure (SMILES): COC(=O)/C=C1/SC(=NC(=O)c2ccc(F)cc2)NC1=O
- IC50: 19.1 µM

Structure (SMILES): N#C/C(=C\C1CC=CCC1)c1nc2ccccc2[nH]1 (stereo not drawn)
- IC50: inactive

Structure (SMILES): O=C1ON=C(c2cccc([N+](=O)[O-])c2)/C1=C/c1ccc(O)cc1
- IC50: 5.68 µM

Structure (SMILES): COc1ccc(-n2nc(C#N)c(Cl)cc2=O)cc1
- IC50: 10.3 µM

Structure (SMILES): N#CC(C#N)=C1C=CC=CN1/C(=C\c1ccccc1Cl)C(=O)c1ccccc1
- IC50: 6.03 µM

Structure (SMILES): COc1ccc(CNCC(O)COc2ccc(C)cc2[N+](=O)[O-])cc1 (stereo not drawn)
- IC50: inactive

Structure (SMILES): CSC1=C(C#N)C(=O)NC(c2ccccc2O)S1 (stereo not drawn)
- IC50: 7.63 µM

Structure (SMILES): O=C1N=C2SCCN2/C1=C\c1ccc(Cl)cc1
- IC50: 4.79 µM

Structure (SMILES): CC(CCc1ccccc1)NC(=O)CN1CCN(c2ccccc2)CC1 (stereo not drawn)
- IC50: inactive

Structure (SMILES): CCOc1cc(C)c(Cl)cc1S(=O)(=O)NC1CC(C)(C)NC(C)(C)C1
- IC50: 82.8 µM

Structure (SMILES): CN(C)c1cc(O)c(C(=S)Nc2ccccc2)c(N(C)C)c1
- IC50: 75.5 µM

Structure (SMILES): O=C(N/N=C/c1cn(-c2cccs2)nc1-c1ccccc1)c1ccc(O)cc1
- IC50: 4.99 µM

Structure (SMILES): CNC(=O)c1nnsc1S(=O)(=O)c1ccc(Cl)cc1
- IC50: 7.46 µM

Structure (SMILES): Cc1cc(C)c(C)c(S(=O)(=O)NC2CCN(Cc3ccccc3)CC2)c1C
- IC50: 17 µM

Structure (SMILES): COc1cccc(/C=C2\SC(=S)N(N3C(=O)CCCC3=O)C2=O)c1
- IC50: inactive

Structure (SMILES): CC(=O)/C(=C/c1ccccc1)C(=O)Nc1ccccc1C
- IC50: 23 µM

Structure (SMILES): N#C/C(=C\c1ccncc1)c1nc2ccccc2[nH]1
- IC50: inactive

Structure (SMILES): CCCNc1nc(Cl)nc(NC(C)(C)C)n1
- IC50: 2.78 µM

Structure (SMILES): Cc1ccc(N2C(=O)NC(=O)/C(=C\C=C\c3ccco3)C2=O)cc1C
- IC50: 2.33 µM

Structure (SMILES): CCCn1c(=S)[nH]c2cc(C(=O)N3CCCC(C(=O)OCC)C3)ccc2c1=O (stereo not drawn)
- IC50: inactive

Structure (SMILES): N#Cc1nc(N2CCCC2)nc(N2CCCC2)n1
- IC50: 41.7 µM

Structure (SMILES): O=C(O)c1cccc(CN2C(=O)S/C(=C/c3cccc([N+](=O)[O-])c3)C2=O)c1
- IC50: 5.71 µM

Structure (SMILES): COC(=O)N/N=C/c1ccc(-c2cc(Cl)ccc2Cl)o1
- IC50: 5.79 µM

Structure (SMILES): Cn1c(=O)c([N+](=O)[O-])c(Cl)c2ccccc21
- IC50: 5.56 µM

Structure (SMILES): Cc1c(N2C(=O)/C(=C\C3CC=CCC3)SC2=S)c(=O)n(-c2ccccc2)n1C (stereo not drawn)
- IC50: 2.66 µM

Structure (SMILES): N#C/C(=C\c1ccc(O)c(Br)c1)C(=O)NCc1ccccc1
- IC50: inactive

Structure (SMILES): CC(C(=O)c1ccc(-c2ccccc2)cc1)[n+]1cccc(NC(=O)c2ccccc2)c1 (stereo not drawn)
- IC50: 27.9 µM

Structure (SMILES): COc1ccc(C2(O)CCN(CCCCOc3ccccc3)CC2)cc1
- IC50: 10.8 µM

Structure (SMILES): COCCCNc1ccc([N+](=O)[O-])cc1C(=O)Nc1cccc(C)n1
- IC50: 13.7 µM

Structure (SMILES): CCOC(=O)c1ccc(-n2c(O)c(/C=N/NC(=O)C3COc4ccccc4O3)c3ccccc3c2=O)cc1 (stereo not drawn)
- IC50: inactive

Structure (SMILES): COC(=O)[C@@]1(Cc2ccccc2)[C@@H]2C(=CC(=O)[C@H]2CC(=O)C(=O)N(C)C)CN1C(=O)c1ccccc1
- IC50: 81 µM

Structure (SMILES): COCCNC(=O)/C(C#N)=C/c1cccc(/C=C(\C#N)C(=O)NCCOC)c1
- IC50: 2.87 µM

Structure (SMILES): CSc1ccc(/C=C(\C#N)C(=O)NC2CCCCC2C)cc1 (stereo not drawn)
- IC50: 3.24 µM
